Assays:
[1] = system: human breast adenocarcinoma MDA-MB231 tumor cells; format: in vivo
Protocol: Orin 1001 was administered by oral gavage in combination with paclitaxel in a xenograft mouse model using female NCr nu/nu mice injected subcutaneously with human breast adenocarcinoma MDA-MB231 tumor cells. To evaluate the effect of Orin 1001 in combination with paclitaxel on early, mid or late stage tumor growth, dosing was initiated either on Day 1 (when tumors reached 225-250 mm^3), Day 14 or Day 28 of tumor growth. Orin 1001 was administered via oral gavage at 300 mg/kg/day in combination with paclitaxel at 10 mg/kg iv, weekly (n=10/group) for up to 60 days.

[2] = system: human ovarian carcinoma A2780 tumor cells; assay: A2780 ovarian carcinoma xenograft (Example 18); format: in vivo, female NCr nu/nu mice; conditions: Orin 1001 300 mg/kg/day oral 28 days; paclitaxel 15 mg/kg iv weekly; endpoint 2000 mm^3 or Day 60
Protocol: (§1) Orin 1001 was administered by oral gavage in a xenograft mouse model using female NCr nu/nu mice injected subcutaneously with human ovarian carcinoma A2780 tumor cells. Animals were assigned to 4 groups (n=6/group); Vehicle control administered by oral gavage for 28 days, Orin 1001 administered via oral gavage at 300 mg/kg/day for 28 consecutive days, paclitaxel administered weekly by iv at 15 mg/kg, or Orin 1001 administered in combination with paclitaxel.
The percent tumor growth delay was calculated using the following equation: TGD (%)=[T-C/C]×100, where T-C is the difference in time to tumor endpoint from Treated (T) and Control (C).

[3] = system: human glioblastoma U-87 MG tumor cells; assay: U-87 MG glioblastoma xenograft (Example 19); format: in vivo, female NCr nu/nu mice
Protocol: as §1, with “glioblastoma U-87 MG” for “ovarian carcinoma A2780”, “cells, a glioblastoma multiforme (GBM) cell line.” for “cells.”
The percent tumor growth delay was calculated using the following equation: TGD (%)=[T-C/C]×100; where T-C is the difference in time to tumor endpoint from Treated (T) and Control (C).
The time to tumor endpoint (TTE) for each animal was further calculated using the following equation: TTE (days)=log 10 (endpoint volume, mm^3)-b/m, where b is the intercept and m is the slope of the line obtained by linear regression of the log-transformed tumor growth data set.

Hep3B-Luc cells = assay: Orthotopic Hep3B-luc human liver xenograft model (Example 22); format: in vivo, female BALB/c nude mice
Protocol: The tumor was inoculated by injecting Hep3B-Luc cells (established by WuXi AppTec R&D center) mixed with BD Matrigel in 20 μl (PBS:Matrigel=1:1) into the left lobe of the liver. […] Sorafenib was formulated with Cremophor® EL/ethanol (1:1) and purified water to form a solution of 9 mg/ml. […] Tumor weight was measured at the termination of study. T/Cweight value (in percent) was calculated using the formula: T/Cweight%=Tweight/Cweight×100%, while Tweight and Cweight were the mean tumor weights of the treated and the vehicle control groups, respectively.

human liver HUH-7 cells = assay: Subcutaneous HUH-7 liver cancer xenograft model, survival (Example 23); format: in vivo, Female BALB/c nude mice
Protocol: Female BALB/c nude mice were subcutaneously inoculated with human liver HUH-7 cells (from JCRB) to establish a xenograft model of liver cancer. The scheduled administration cycle was 28 days. Animals were assigned into 4 groups (n=10/group): one vehicle group, two single treatment groups (Orin 1001 administered at 80 mg/kg/day q.d. for 28 days; Sorafenib administered following a dose regimen of 18.25 mg/kg/day q.d. for 5 days, then 25 mg/kg/day q.d. for 3 days, and then 45 mg/kg/day q.d. for 20 days, consecutively) and one combination treatment group (sorafenib administered following a dose regimen of 18.25 mg/kg/day q.d. for 5 days, then 25 mg/kg/day q.d. for 3 days, and then 45 mg/kg/day q.d. for 20 days, consecutively, whilst combined with Orin 1001 administered q.d. at a dose of 80 mg/kg/day for 28 days). All vehicle or administration treatments were given via oral gavage. Sorafenib was formulated with Kolliphor® EL/ethanol (2/1, v/v) and water. Orin 1001 was dissolved with cellulose microcrystalline and sucrose in purified water to form as suspension. The mice were euthanized if a tumor volume achieved over 2000 mm^3. Otherwise the experiment ended on the 6th day after the last administration.

[4] = Oral bioavailability test, mouse; conditions: in vivo, 10 mg/kg dose
Protocol: (§2) All PK experiments are standard tests that performed in either WuXi PharmaTech or Charels River Laboratory. 4315 and 4485 (Orin 1001) were dosed PO as a suspension in 1% microcellulose (Sigma) and 50% Sucrouse (Sigma).

[5] = Oral bioavailability test, dog; conditions: in vivo, 4 mg/kg dose
Protocol: as §2

[6] = Orin 1001 300 mg/kg/day oral 28 days, paclitaxel 15 mg/kg iv weekly, endpoint 2000 mm^3 or Day 60

Structure (SMILES): COc1cc2c(C)c(CC(=O)N3CCOCC3)c(=O)oc2c(C=O)c1O [Orin 1001]
- clinical signs of toxicity ([1]; 300 mg/kg/day oral gavage with paclitaxel 10 mg/kg iv weekly, up to 60 days): no clinical signs of toxicity
- tolerability of extended oral dosing ([1]; up to 60 consecutive days): well tolerated
- percent tumor growth delay (TGD) [2]: 29%
- percent tumor growth delay (TGD) [3, 6]: 13%
- time to tumor endpoint (TTE) [3, 6]: 29.3 days
- tumor delay effect over the control ([3]; each agent alone): not very significant
- T/Cweight (%) (Hep3B-Luc cells; mean tumor weight treated / vehicle control, day 28): 56%
- Tumor Weight (g) at day 28 (Hep3B-Luc cells; oral gavage 28 consecutive days, Orin 1001 80 mg/kg/day, sorafenib 45 mg/kg/day): 2.68 ± 1.69 g
- Median Survival Time (MST) (human liver HUH-7 cells; Orin 1001 80 mg/kg/day q.d. 28 days, sorafenib 18.25/25/45 mg/kg, Kaplan-Meier): 20 days
- ILS (%) (increase of life span) (human liver HUH-7 cells; versus vehicle group (group 1)): 0%
- bioavailability [4]: 63%
- bioavailability [5]: 68.5%

From US20210260069A1, “IRE1a INHIBITOR IN COMBINATION WITH CANCER [sequence] AGENT FOR CANCER TREATMENT” (Fosun Orinove PharmaTech, Inc., priority 2018, published 2021)
